Where two headings read alike, the source gives them in different places.
Target: T1, self-produced hTGase 2 (Homo sapiens, UniProt P21980)
T1 construct: thrombin cleavage site (N); made in house; host or cells: E. coli BL21(DE3)
T1 sequence (P21980 1-687): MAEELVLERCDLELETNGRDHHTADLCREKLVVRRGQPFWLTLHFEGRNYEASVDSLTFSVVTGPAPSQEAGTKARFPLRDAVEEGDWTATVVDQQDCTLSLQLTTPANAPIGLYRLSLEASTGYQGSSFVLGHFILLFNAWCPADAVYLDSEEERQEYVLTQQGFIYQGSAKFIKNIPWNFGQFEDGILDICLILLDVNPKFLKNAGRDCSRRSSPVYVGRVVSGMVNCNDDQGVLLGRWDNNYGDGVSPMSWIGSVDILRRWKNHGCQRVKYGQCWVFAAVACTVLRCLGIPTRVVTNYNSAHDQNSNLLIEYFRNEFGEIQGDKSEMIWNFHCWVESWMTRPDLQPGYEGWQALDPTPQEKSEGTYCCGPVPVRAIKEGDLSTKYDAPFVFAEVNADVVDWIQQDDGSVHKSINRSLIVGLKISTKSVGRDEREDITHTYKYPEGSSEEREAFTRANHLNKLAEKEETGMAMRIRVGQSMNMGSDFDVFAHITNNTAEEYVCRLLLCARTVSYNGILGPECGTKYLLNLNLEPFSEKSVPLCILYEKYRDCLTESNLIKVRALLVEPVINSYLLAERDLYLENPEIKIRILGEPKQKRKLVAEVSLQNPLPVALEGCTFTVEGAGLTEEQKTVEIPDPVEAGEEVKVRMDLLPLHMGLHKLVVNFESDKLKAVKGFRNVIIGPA
Experiment: native GTP-PAGE with increasing concentrations of inhibitor, band quantification
Type: biochemical
Details: 8.23 µM hTGase 2; for IC50: 50 µM GTP in gel and buffer
Experimental: Figure 8 Effect of increasing concentrations of inhibitor 2 on the activity and the conformation of hTGase 2. Native GTP-PAGE was performed on 7% separating gels. Both the gel and the running buffer contained 50 µM GTP without (A) and with an additional 500 µM MgCl2 (B). Samples of 8.23 µM self-produced hTGase 2 were first incubated for 30 min at 20 °C in 100 mM MOPS pH 8.0, 100 mM NaCl, 2.12% (v/v) DMSO, 5.33% (v/v) glycerol with CaCl2, GTP, MgCl2, and different concentrations of inhibitor 2, as indicated. GTP and/or MgCl2 were added as indicated, and all samples were incubated for 60 min at 20 °C. After adding native loading buffer, 6 µL of each sample containing 3 µg of hTGase 2 was loaded onto the gel. After electrophoretic separation, gels were stained with Coomassie Brilliant Blue G250, scanned, and the protein bands were quantified (Figure S7 in Supplementary Materials). Four species of hTGase 2, i.e., oligomers and slow-, intermediate-, and fast-migrating species, were identified, with slow- and intermediate-migrating species combined for the quantitative analysis. (C) Percentage of the signals of the three species per lane and (D) percentage of the oligomers’ signal plotted versus the concentration of inhibitor 2. (E) Signals of the slow-/intermediate-migrating and fast-migrating species were added and set to one. (F) Portion of the fast-migrating species in (E) was plotted against the concentration of inhibitor 2. The IC50 values in (D,F) were calculated by non-linear regression according to Equation (S29) in Supplementary Materials.
Sodium dodecyl sulfate-PAGE (SDS-PAGE) and native PAGE were performed on 4% stacking and 7% separating gels using Laemmli buffers (60 min with 120 V, 300 mA and 30 W at room temperature) and the same buffers without SDS (80 min with 120 V, 50 mA and 30 W at 4 °C), respectively. Buffers and gels were as follows: (i) for SDS-PAGE: stacking gel: 0.125 M TRIS pH 6.8, 4% (v/v) acrylamide-bisacrylamide, 0.1% (m/v) SDS; separating gel: 0.375 M TRIS pH 8.8, 7% (v/v) acrylamide-bisacrylamide, 0.1% (m/v) SDS; running buffer: 0.025 M TRIS pH 8.3, 0.2 M glycine, 0.1% (m/v) SDS; (ii) for native PAGE: the same buffers and gels were used without the addition of SDS. Native PAGE experiments, where 50 µM of GTP was added to the stacking and separating gels and the running buffer, are specified as “native GTP-PAGE” (with italic letters). In contrast, experiments without GTP are denoted as “native PAGE” (with italics letters). The term “native (GTP-)PAGE” (with italics letters) is used when we refer to both methods. Further conditions of the SDS-PAGE and native (GTP-)PAGE are detailed in the legends of Figure 7 and Figure 8 and Figures S4–S6 (Supplementary Materials). For the loading of samples onto the stacking gel, three parts of the sample solution were mixed with one part of the respective loading buffer. In the case of SDS-PAGE, SDS loading buffer (0.24 M TRIS, 40% (v/v) glycerol, 8% (m/v) SDS, 2% (v/v) 2-mercaptoethanol, and 0.08% (m/v) bromphenol blue) were used, followed by the denaturation of the mixture for 5 min at 60 °C. […] Afterward, the gels were scanned using a LI-COR Odyssey Fc Imager (700 channel) and analyzed using Image Studio software version 5.2.5. Detected bands were quantified based on the general procedure published by Wagstaff et al. and as detailed in legends to Figures S5 and S6. […]

C=CC(=O)NCCCC[C@H](NC(=O)Cc1ccccc1I)C(=O)N1CCN(c2ccc([N+](=O)[O-])nc2)CC1 [Compound 2, N^α-(2-Iodophenylacetyl)-N^ε-acryloyl-L-lysin-4-(2-nitropyridin-5-yl)piperazide]
IC50 (Gel A (w/o Mg^2+), read-out: IC50, percentage of the oligomers' signal (Figure 8D)): 5.58 µM | IC50 (Gel A (w/o Mg^2+), read-out: IC50, portion of the fast-migrating (closed) species of monomeric hTGase 2 (Figure 8F)): 5.28 µM | IC50 (Gel B (with Mg^2+, 500 µM MgCl2), read-out: IC50, percentage of the oligomers' signal (Figure 8D)): 5.71 µM | IC50 (Gel B (with Mg^2+, 500 µM MgCl2), read-out: IC50, portion of the fast-migrating (closed) species of monomeric hTGase 2 (Figure 8F)): 5.68 µM | ratio of the IC50 and the molar enzyme concentration (native GTP-PAGE, calculated from values in Figure 8D,F): 0.64–0.69
